Assay results published in US9877981B2, “NAD biosynthesis and precursors for the treatment and prevention of cancer and proliferation” (President and Fellows of Harvard College, priority 2012, dated 2018).

Assays:
Format in all cases: cell-based, mouse
[1] = tested on: PGC-1α/β KO myotubes; experiment: qPCR of ETC genes in PGC-1α/β KO myotubes; conditions: for expression of nuclear- and mitochondrial-encoded genes: EX-527 48 h
Protocol: (§1) Primary myoblasts cells were isolated from WT, SIRT1 KO (Price et al., 2012) and PGC-1α/β KO (Zechner et al., 2010) mice as previously described (Price et al., 2012). WT and PGC-1α/β KO primary myoblasts were plated and allowed to differentiate into myotubes by replacing the media with low glucose DMEM supplemented with 2% horse serum (Sigma-Aldrich) for 4 days. After the differentiation the cells were infected with empty vector or flag-SIRT1 adenovirus as described before (Gerhart-Hines et al., 2007). Media was replaced with fresh DMEM supplemented with 2% horse serum (Sigma-Aldrich) for an additional 48 hr and, after that the cells were harvested for the different assays as described. To investigate the role of HIF-1α in genome asynchrony, PGC-1α/β KO primary myotubes were treated for 12 hours with 1 mM DMOG (Sigma) or 10 μM DFO (Sigma), 24 h after infection with empty vector of flag-SIRT1 adenovirus or after 12 h treatment with 500 mM NMN (Sigma).
(§2) RNA from skeletal muscle tissue and C2C12 cells were extracted with RNeasy mini kit (Qiagen) according to the instructions and quantified using the NanoDrop 1000 spectrophotometer (Thermo Scientific). cDNA was synthesized with the iSCRIP cDNA synthesis kit (BioRad) using 600 ng of RNA. Quantitative RT-PCR reactions were performed using 1 μM of primers and LightCycler® 480 SYBR Green Master (Roche) on an LightCycler® 480 detection system (Roche). Calculations were performed by a comparative method (2-ΔCT) using 18S as an internal control. For mtDNA analysis, total DNA was extracted with DNeasy blood and tissue kit (Qiagen). mtDNA was amplified using primers specific for the mitochondrial cytochrome c oxidase subunit 2 (COX2) gene and normalized to genomic DNA by amplification of the ribosomal protein s18 (rps18) nuclear gene. Primers were designed using the IDT software (IDT) and the primer sequences can be found in Table 1.

[2] = tested on: C2C12 myoblasts; experiment: mtDNA content and ETC gene expression in C2C12 myoblasts; conditions: C2C12 cells; 10 μM EX-527 for 12 h
Protocol: C2C12 cell line (ATCC) was cultured in low glucose Dulbecco's modified eagle medium (DMEM) (Invitrogen) supplemented with 10% FBS (Invitrogen) and a mix of antibiotic and antimycotic (Invitrogen). To inhibit SIRT1, cells were treated the vehicle (0.001% DMSO) or 10 μM EX-527 (Tocris) for 12 h. C2C12 myoblasts were infected with an empty or SIRT1 adenovirus as described before (Gerhart-Hines et al., 2007) and the media was replaced with fresh DMEM for additional 48 h, after that the cells were treated as described before. To test the effects of hypoxia and HIFα stabilization in genome asyncrony, C2C12 myoblasts were exposed to 1% oxygen for 16 h or treated with the vehicle (0.001% DMSO) or DMOG (Cayman) for the same period of time.
as §2

[3] = tested on: NAD+/NADH; experiment: NAD+/NADH ratio in primary myoblasts treated with pyruvate or lactate; conditions: primary WT myoblasts; 10 mM lactate 24 h
Protocol: as §1

[4] = tested on: HIF-1α; experiment: Immunoblot of HIF-1α in primary WT myoblasts; conditions: 10 mM lactate 24 h
Protocol: as §1, with “To investigate the role of HIF-1α in genome asynchrony, PGC-1α/β KO primary myotubes were treated for 12 hours with 1 mM DMOG (Sigma) or 10 μM DFO (Sigma), 24 h after infection with empty vector of flag-SIRT1 adenovirus or after 12 h treatment with 500 mM NMN (Sigma).” left out
Protein extracts from tissue or C2C12 cells were obtained by lysis in ice-cold lysis buffer (150 mM NaCl, 10 mM Tris HCl (pH 7.4), 1 mM EDTA, 1 mM EGTA, 1% Triton X-100, 0.5% NP-40) supplemented with a cocktail of protease and phosphatase inhibitors (Roche). Protein content was determined by the Bradford protein assay (Biorad), and 50 μg proteins were run on SDS-PAGE under reducing conditions. […] The immunostaining was detected using horseradish peroxidase-conjugated anti-rabbit or anti-mouse immunoglobulin for 1 h at room temperature.

In the case of `NC(=O)C1CCCc2c1[nH]c1ccc(Cl)cc21` (stereo not shown) [EX-527], the “expression of nuclear- and mitochondrial-encoded genes” value ([1]; PGC-1α/β KO myotubes reconstituted with PGC-1α T177A/S538A mutant) is reported as “only the mitochondrial-encoded genes decreased”, the “expression of nuclear- and mitochondrial-encoded genes” value ([1]; PGC-1α/β KO myotubes reconstituted with WT PGC-1α) is reported as “decreased both nuclear- and mitochondrial-encoded genes” and the genome asynchrony [2] is reported as “Genome asynchrony was induced”.

`CC(=O)N(O)CCCCCNC(=O)CCC(=O)N(O)CCCCCNC(=O)CCC(=O)N(O)CCCCCN` [DFO, desferrioxamine] was tested, and the “effect on NMN-induced expression of mitochondrially-encoded ETC genes” value ([1]; PGC-1α/β KO myotubes, NMN plus 1 mM DMOG or 10 μM DFO, 12 hours) was “completely abolished” and the “effect on induction of mitochondrial ETC genes by SIRT1 overexpression” value ([1]; PGC-1α/β knockout myotubes with SIRT1 adenovirus, 1 mM DMOG or 10 μM DFO) was “completely blocked”.

In the case of `CC(O)C(=O)O` (stereo not shown) [lactate], the “NAD+/NADH ratio” value [3] is reported as “decreasing NAD^+/NADH ratio” and the HIF-1α protein stabilization [4] is reported as “induces HIF-1α protein stabilization”.
